Test results as given in the supplement of paper PMC8671470.

Legend:
Conditions in all cases: 72 h
HL-60 [1] = assay: cell viability (% survival relative to DMSO control, bortezomib = 0%); higher = less cytotoxic
Procedure, shortened: (§1)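 Fifteen myeloid leukaemia cell lines were exposed to compounds at 1, 10, 100, 1000 or 10000 nM in 384-well plates for 72 h at 37 °C and 5% CO2. Viability was read by CellTiter-Glo luminescence and normalised, with vehicle as 100% and a 10 µM positive control as 0%. Values are percent survival averaged over duplicates.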

MV4-11 = assay: as above
Procedure, shortened: as §1

BV-173 = assay: as above
Procedure, shortened: as §1

KCL-22 = assay: as above
Procedure, shortened: as §1

MOLM-13 = assay: as above
Procedure, shortened: as §1

K-562 = assay: as above
Procedure, shortened: as §1

Mono-Mac-6 = assay: as above
Procedure, shortened: as §1

LAMA-84 = assay: as above
Procedure, shortened: as §1

KU-812 = assay: as above
Procedure, shortened: as §1

SHI-1 = assay: as above
Procedure, shortened: as §1

THP-1 = assay: as above
Procedure, shortened: as §1

ML-2 = assay: as above
Procedure, shortened: as §1

HEL = assay: as above
Procedure, shortened: as §1

KG-1 = assay: as above
Procedure, shortened: as §1

NOMO-1 [2] = assay: as above
Procedure, shortened: as §1

HL-60 [3] = assay: cell viability (% survival relative to DMSO control); higher = less cytotoxic
Procedure, shortened: (§2)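 Four-parameter log-logistic fits in drc and PharmacoGx supplied area under the curve where it is given. Underlying viability came from CellTiter-Glo, normalised to DMSO and proteasome-inhibitor wells, with the proteasome inhibitor at 10 μM. HL-60 cells in RPMI 1640 plus 10% FBS had been rescreened against the full library at five tenfold concentrations of 1–10,000 nM, in duplicate on 384-well plates, with DMSO or 100 nM of one of three metabolic inhibitors, for 72 h at 37 °C, 5% CO2.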

NOMO-1 [4] = system: NOMO-1
Procedure, shortened: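 Fifteen myeloid leukaemia cell lines were seeded in RPMI 1640 at densities titrated to the linear growth range and placed in 384-well plates with acoustically pre-printed compounds at five tenfold doses from 1 to 10,000 nM, in duplicate. After 72 h at 37 °C with 5% CO2, luminescent ATP viability was normalised to vehicle and to a positive control at 10 µM, and curves were fitted with a four-parameter log-logistic model. The IC50 was obtained from these fits.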

HL-60 [5] = assay: area under dose-response curve (viability, 1 nM-10 uM) (fraction (0-1)); higher = more sensitive
Procedure, shortened: as §2

O=[As]O[As]=O (centres undefined) [Arsenic trioxide]
Conditions	area under dose-response curve, co-treatment: AZD3965 100 nM	area under dose-response curve, co-treatment: DMSO vehicle	area under dose-response curve, co-treatment: GSK2194069 100 nM	area under dose-response curve, co-treatment: pictilisib 100 nM	cell viability, 1 nM [%]	cell viability, 10 nM [%]	cell viability, 100 nM [%]	cell viability, 1000 nM [%]	cell viability, 10000 nM [%]
BV-173	–	–	–	–	96.1	97.2	105	95.5	28.4
HEL	–	–	–	–	98.8	102	120	96.8	74.9
HL-60 [1]	–	–	–	–	108	105	109	96.9	55.6
HL-60 [5]	< 0.0301	< 0.0301	< 0.0301	< 0.0301	–	–	–	–	–
K-562	–	–	–	–	91.1	93.8	105	102	49.5
KCL-22	–	–	–	–	107	107	102	99	74.4
KG-1	–	–	–	–	103	106	108	97	86.4
KU-812	–	–	–	–	98.5	105	112	93.4	61.5
LAMA-84	–	–	–	–	104	100	109	90.2	53.2
ML-2	–	–	–	–	109	96.4	103	94.9	76.2
MOLM-13	–	–	–	–	110	104	124	102	18.5
MV4-11	–	–	–	–	97	108	104	95.1	20.4
Mono-Mac-6	–	–	–	–	98.2	104	109	102	43.2
NOMO-1 [2]	–	–	–	–	98	96	110	100	71.4
SHI-1	–	–	–	–	105	97.1	112	94.7	57.6
THP-1	–	–	–	–	93.9	96.1	106	92.4	82.2

cell viability [%], HL-60 [3]
Conditions	0.001 µM	0.01 µM	0.1 µM	1 µM	10 µM
co-treatment: AZD3965 100 nM	103	101.5	98.7	102	82.7
co-treatment: DMSO vehicle	98.8	100	97.29	100.5	96.7
co-treatment: GSK2194069 100 nM	102	99.1	98.8	99.11	87.09
co-treatment: pictilisib 100 nM	94.24	101	93.6	98.5	63.4

Conditions	IC50 (cell viability) [µM]
NOMO-1 [4]	> 10

CN(C)CCNC(=O)c1cccn2c(=O)c3cc4ccccc4cc3nc12 [Bmh-21]
Conditions	area under dose-response curve, co-treatment: AZD3965 100 nM	area under dose-response curve, co-treatment: DMSO vehicle	area under dose-response curve, co-treatment: GSK2194069 100 nM	cell viability, 1 nM [%]	cell viability, 10 nM [%]	cell viability, 100 nM [%]	cell viability, 1000 nM [%]	cell viability, 10000 nM [%]
BV-173	–	–	–	105	98.6	95.8	-0.204	-0.415
HEL	–	–	–	110	93.8	93.8	8	0.459
HL-60 [1]	–	–	–	102	108	93.6	107	77.7
HL-60 [5]	0.0645	0.0352	0.0524	–	–	–	–	–
K-562	–	–	–	108	84.5	94.1	92.9	44.3
KCL-22	–	–	–	115	113	98.7	0.317	0.85
KG-1	–	–	–	104	101	104	9.79	0.81
KU-812	–	–	–	98.1	105	108	15.5	-0.163
LAMA-84	–	–	–	103	107	95.2	21.2	1.47
ML-2	–	–	–	111	106	99.4	-0.0196	-0.0121
MOLM-13	–	–	–	123	92.6	102	87.6	22.1
MV4-11	–	–	–	107	85.5	90.4	78.8	11.1
Mono-Mac-6	–	–	–	89.8	101	106	0.313	0.0551
NOMO-1 [2]	–	–	–	106	101	101	45.9	-0.0945
SHI-1	–	–	–	108	102	81.7	94	53.7
THP-1	–	–	–	102	96.4	104	45.1	-0.241

cell viability [%], HL-60 [3]
Conditions	0.001 µM	0.01 µM	0.1 µM	1 µM	10 µM
co-treatment: AZD3965 100 nM	97.56	95.3	101	91.9	48.8
co-treatment: DMSO vehicle	101.2	98.3	102	98.4	74.2
co-treatment: GSK2194069 100 nM	98.9	102	101	94.5	66
co-treatment: pictilisib 100 nM	94.2	100.6	104	85.7	73.8

Conditions	IC50 (cell viability) [µM]
NOMO-1 [4]	0.923

CN(C)C(=O)n1nnnc1Cc1ccc(-c2ccccc2)cc1
Conditions	area under dose-response curve, co-treatment: AZD3965 100 nM	area under dose-response curve, co-treatment: DMSO vehicle	area under dose-response curve, co-treatment: GSK2194069 100 nM	area under dose-response curve, co-treatment: pictilisib 100 nM	cell viability, 1 nM [%]	cell viability, 10 nM [%]	cell viability, 100 nM [%]	cell viability, 1000 nM [%]	cell viability, 10000 nM [%]
BV-173	–	–	–	–	96.6	110	98.1	13.7	0.269
HEL	–	–	–	–	101	112	102	87.1	1.09
HL-60 [1]	–	–	–	–	114	136	106	108	2.17
HL-60 [5]	0.113	0.116	0.108	0.116	–	–	–	–	–
K-562	–	–	–	–	100	111	112	78.1	4.59
KCL-22	–	–	–	–	94.6	109	101	95	0.732
KG-1	–	–	–	–	93.7	108	104	60.6	8.52
KU-812	–	–	–	–	101	101	96.5	77.9	3.07
LAMA-84	–	–	–	–	83	109	103	85.5	3.4
ML-2	–	–	–	–	101	112	114	69.2	3.07
MOLM-13	–	–	–	–	99	122	115	104	0.746
MV4-11	–	–	–	–	98.3	114	89.2	76.4	0.0147
Mono-Mac-6	–	–	–	–	95.9	102	102	88.6	0.0787
NOMO-1 [2]	–	–	–	–	105	99.4	96.7	86.9	26.5
SHI-1	–	–	–	–	97.5	116	125	112	1.4
THP-1	–	–	–	–	103	112	102	67.6	35

cell viability [%], HL-60 [3]
Conditions	0.001 µM	0.01 µM	0.1 µM	1 µM	10 µM
co-treatment: AZD3965 100 nM	91.3	99.6	103	105	6.18
co-treatment: DMSO vehicle	97.5	99.54	101	101.1	6.81
co-treatment: GSK2194069 100 nM	101	96.8	104	109	6.62
co-treatment: pictilisib 100 nM	96.2	93.4	100	104	5

Conditions	IC50 (cell viability) [µM]
NOMO-1 [4]	4.43
